ChEMBL document CHEMBL4321874 (J Med Chem, 2020)

Target: CDC7/DBF4 (Cell division cycle 7-related protein kinase/Activator of S phase kinase) (Homo sapiens, UniProt O00311)
Test: Inhibition of N-terminal GST-fused full-length human CDC7 (1 to 574 end residues)/DBF4 (1 to 674 residues) expressed in baculovirus expression system using MCM2 as substrate preincubated with enzyme for 10 mins prior to 1 uM ATP addition by HTRF transcreener ADP assay

Question: `Cc1n[nH]cc1-c1cc2nc([C@H]3NCC[C@@H]3C)[nH]c(=O)c2s1` was tested. Which IC50 did it give?
Answer: 0.61 nM

Question: For `Cc1n[nH]cc1-c1cc2nc([C@@H]3CCN3)[nH]c(=O)c2s1`, which IC50 is on record?
Answer: 2.1 nM

Question: Which IC50 does the source give for `Cc1n[nH]cc1-c1cc2nc([C@@H]3C[C@H](C)CN3)[nH]c(=O)c2s1` here?
Answer: 1.3 nM

Question: How did the IC50 turn out when `Cc1n[nH]cc1-c1cc2nc([C@@H]3CC=CCN3)[nH]c(=O)c2s1` was run?
Answer: 0.53 nM

Species: Homo sapiens
Test: Selectivity index, ratio of IC50 N-terminal GST-tagged human ROCK1 catalytic domain (1 to 477 residues) expressed in baculovirus expression system to IC50 for N-terminal GST-fused full-length human CDC7 (1 to 574 end residues)/DBF4 (1 to 674 residues) expressed in baculovirus expression system

Question: Which Ratio IC50 does the source give for `Cc1n[nH]cc1-c1cc2nc([C@H]3NCC[C@@H]3C)[nH]c(=O)c2s1` here?
Answer: 210

Question: For `Cc1n[nH]cc1-c1cc2nc([C@@H]3CCN3)[nH]c(=O)c2s1`, which Ratio IC50 is on record?
Answer: 360

Question: With `Cc1n[nH]cc1-c1cc2nc([C@@H]3C[C@H](C)CN3)[nH]c(=O)c2s1` as the compound, how does the Ratio IC50 read?
Answer: 480

Question: With `Cc1n[nH]cc1-c1cc2nc([C@@H]3CC=CCN3)[nH]c(=O)c2s1` as the compound, how does the Ratio IC50 read?
Answer: 640

Target: Rho-associated protein kinase 1 (Homo sapiens, UniProt Q13464)
Test: Inhibition of N-terminal GST-tagged human ROCK1 catalytic domain (1 to 477 residues) expressed in baculovirus expression system using biotin-STK-substrate 2 as substrate preincubated with enzyme for 5 mins followed by ATP addition and measured after 2 hrs by TR-FRET assay

Question: How did the IC50 turn out when `Cc1n[nH]cc1-c1cc2nc([C@H]3NCC[C@@H]3C)[nH]c(=O)c2s1` was run?
Answer: 130 nM

Question: `Cc1n[nH]cc1-c1cc2nc([C@@H]3CCN3)[nH]c(=O)c2s1` was tested. Which IC50 did it give?
Answer: 760 nM

Question: How did the IC50 turn out when `Cc1n[nH]cc1-c1cc2nc([C@@H]3C[C@H](C)CN3)[nH]c(=O)c2s1` was run?
Answer: 630 nM

Question: How did the IC50 turn out when `Cc1n[nH]cc1-c1cc2nc([C@@H]3CC=CCN3)[nH]c(=O)c2s1` was run?
Answer: 340 nM

Species: Homo sapiens
Test: Selectivity index, ratio of IC50 for N-terminal GST-tagged full-length human CDK2 (1 to 298 residues)/Cyclin E (1 to 410 residues) expressed in baculovirus expression system to IC50 for N-terminal GST-fused full-length human CDC7 (1 to 574 end residues)/DBF4 (1 to 674 residues) expressed in baculovirus expression system

Question: With `Cc1n[nH]cc1-c1cc2nc([C@H]3NCC[C@@H]3C)[nH]c(=O)c2s1` as the compound, how does the Ratio IC50 read?
Answer: 1000

Question: For `Cc1n[nH]cc1-c1cc2nc([C@@H]3CCN3)[nH]c(=O)c2s1`, which Ratio IC50 is on record?
Answer: 3300

Question: `Cc1n[nH]cc1-c1cc2nc([C@@H]3C[C@H](C)CN3)[nH]c(=O)c2s1` was tested. Which Ratio IC50 did it give?
Answer: 2800

Question: `Cc1n[nH]cc1-c1cc2nc([C@@H]3CC=CCN3)[nH]c(=O)c2s1` was tested. Which Ratio IC50 did it give?
Answer: 8900

Target: Cyclin-dependent kinase 2/cyclin E1 (Homo sapiens, UniProt P24941)
Test: Inhibition of N-terminal GST-tagged full-length human CDK2 (1 to 298 residues)/Cyclin E (1 to 410 residues) expressed in baculovirus expression system using histone H1 as susbtrate after 90 mins by Kinase-Glo luminescence assay

Question: For `Cc1n[nH]cc1-c1cc2nc([C@H]3NCC[C@@H]3C)[nH]c(=O)c2s1`, which IC50 is on record?
Answer: 620 nM

Question: `Cc1n[nH]cc1-c1cc2nc([C@@H]3CCN3)[nH]c(=O)c2s1` was tested. Which IC50 did it give?
Answer: 6900 nM

Question: `Cc1n[nH]cc1-c1cc2nc([C@@H]3C[C@H](C)CN3)[nH]c(=O)c2s1` was tested. Which IC50 did it give?
Answer: 3700 nM

Question: How did the IC50 turn out when `Cc1n[nH]cc1-c1cc2nc([C@@H]3CC=CCN3)[nH]c(=O)c2s1` was run?
Answer: 4700 nM
